Consider seven compounds from US8211899B2, “Artificial nucleic acid bases and their use in base pairing natural nucleic acid bases” (Inter-University Research Institute Corporation National …, priority 2005, dated 2012).

Where two headings read alike, the source gives them in different places.

Data set [1] in a line: solubility test in solvents at 1 to 100 mM. The data set is classed as physicochemical. As to conditions: for solubility: warmed to 50° C. and cooled to 27° C.; for solubility in water and organic solvents: water and various organic solvents. As for the experimental part: The solubility of PPT obtained in Example 1 was examined. For comparison, the solubility of a PPT derivative, wherein R is H in chemical formula I (hereinafter, referred to as “PPT(H)”). For the solubility test, each solvent listed in Table I was used, and the concentration of solute was 1 to 100 mM. The solution with respective concentrations was warmed once to 50° C. and cooled to 27° C. The solution with residues was referred to as “insoluble”, in the contrast the solution without residues was referred to as “soluble”. The concentration of the buffer was 100 mM and the pH was 7.0.

In another data set the test system is 1-methylcytosine (C). As to the kind of experiment: test of base pair formation by UV absorbance change versus mixing ratio. The data set is classed as binding. As to conditions: mixture with C, total 7.5 mmol/L, mol ratio 0:10 to 10:0, anhydrous DMSO, 25° C., 12 hr. As for the experimental part:
(§1) The test of base pair formation was carried out in the following way. […] The mixture was dissolved at 25° C. in anhydrous dimethyl sulfoxide (DMSO), which had been removed oxygen by freezing-degas method, dissolved argon gas, mixed with DMSO solution of substrates prepared before hand, and allowed to leave for overnight (12 hr.). Then, the change of absorbance in ultraviolet wavelength region was measured according to the following conditions: • (1) The measuring equipment, JASCO […]IAL NO. C02951260; • (2) The thermal controller, JASCO PSC-498T; • (3) The cell, GL Science Type: AB20-SQ-0.1 (Optical path is 0.1 mm); • (4) The cell adopter, CAS-10-1; • (5) The measured wavelength region, 200-350 nm. The absorbance changed in accordance with the mixing ratios. Plot of the absorbance change versus to mixing ratios at a wavelength, where the absorbance change was observed, are shown in FIG. 2. The absorbance of substrates is proportional to a mixing ratio of the substrates (Beer's law) in the case of no interaction between substrates.

A further data set deals with 9-methyladenine (A). The description is as above. The conditions noted are these: mixture with A, total 7.5 mmol/L, mol ratio 0:10 to 10:0, anhydrous DMSO, 25° C., 12 hr. The data set is classed as binding. As for the experimental part: as §1
The next data set concerns 9-methylguanine (G). Described as above. The data set is classed as binding. The conditions noted are these: mixture with G, total 7.5 mmol/L, mol ratio 0:10 to 10:0, anhydrous DMSO, 25° C., 12 hr. The protocol: as §1
A further data set deals with 1-methylthymine (T). Described as above. The conditions noted are these: mixture with T, total 7.5 mmol/L, mol ratio 0:10 to 10:0, anhydrous DMSO, 25° C., 12 hr. The data set is classed as binding. The protocol:
The test of base pair formation was carried out in the following way. The concentration of the mixture of PPT and one of respective N-methylated natural nucleic acid bases (1-methylcytosine (herein after, referred to as “C”), 1-methylthymine (hereinafter, referred to as “T”). 9-methyladenine (hereinafter, referred to as “A”), and 9-methylguanine (hereinafter, referred to as “G”)) was kept constant at 7.5 mmol/L and the ratio (mol ratio) of the mixture was varied from 0:10 to 10:0. The mixture was dissolved at 25° C. in anhydrous dimethyl sulfoxide (DMSO), which had been removed oxygen by freezing-degas method, dissolved argon gas, mixed with DMSO solution of substrates prepared before hand, and allowed to leave for overnight (12 hr.). Then, the change of absorbance in ultraviolet wavelength region was measured according to the following conditions: • (1) The measuring equipment, JASCO V-550 SERIAL NO. C02951260; • (2) The thermal controller, JASCO PSC-498T; • (3) The cell, GL Science Type: AB20-SQ-0.1 (Optical path is 0.1 mm); • (4) The cell adopter, CAS-10-1; • (5) The measured wavelength region, 200-350 nm.
The absorbance of substrates is proportional to a mixing ratio of the substrates (Beer's law) in the case of no interaction between substrates.
For comparison, the base pair formation was examined for A and T, and G and T similarly to Example 3.

[2] abbreviates: DMF, 27 °C, organic solvent or mixture, thermodynamic from solid, DMF, concentration 1 mM, read-out: solubility.
The mark [3] stands for this setting: DMF, 27 °C, organic solvent or mixture, thermodynamic from solid, DMF, concentration 100 mM, read-out: solubility.
Where [4] appears, read: DMSO, 27 °C, organic solvent or mixture, thermodynamic from solid, DMSO, concentration 1 mM, read-out: solubility.
[5] abbreviates: DMSO, 27 °C, organic solvent or mixture, thermodynamic from solid, DMSO, concentration 100 mM, read-out: solubility.
Where [6] appears, read: TBE buffer, 27 °C, pH 7, aqueous buffer, thermodynamic from solid, TBE buffer 100 mM pH 7.0, concentration 1 mM, read-out: solubility.
The mark [7] stands for this setting: TBE buffer, 27 °C, pH 7, aqueous buffer, thermodynamic from solid, TBE buffer 100 mM pH 7.0, concentration 100 mM, read-out: solubility.
[8] abbreviates: methanol, 27 °C, organic solvent or mixture, thermodynamic from solid, methanol, concentration 1 mM, read-out: solubility.
Where [9] appears, read: methanol, 27 °C, organic solvent or mixture, thermodynamic from solid, methanol, concentration 100 mM, read-out: solubility.
[10] abbreviates: phosphate buffer, 27 °C, pH 7, aqueous buffer, thermodynamic from solid, phosphate buffer 100 mM pH 7.0, concentration 1 mM, read-out: solubility.
The mark [11] stands for this setting: phosphate buffer, 27 °C, pH 7, aqueous buffer, thermodynamic from solid, phosphate buffer 100 mM pH 7.0, concentration 100 mM, read-out: solubility.
[12] abbreviates: water, 27 °C, water, thermodynamic from solid, water, concentration 1 mM, read-out: solubility.
Setting [13] is: water, 27 °C, water, thermodynamic from solid, water, concentration 100 mM, read-out: solubility.
[14] abbreviates: TBE buffer 100 mM pH 7.0, concentration 1 mM.
[15] abbreviates: TBE buffer 100 mM pH 7.0, concentration 100 mM.
Where [16] appears, read: phosphate buffer 100 mM pH 7.0, concentration 1 mM.
The mark [17] stands for this setting: phosphate buffer 100 mM pH 7.0, concentration 100 mM.

`CC(C)(C)[Si](OCCn1c(=O)[nH]c(=O)c2c(=O)[nH]c(=O)[nH]c21)(c1ccccc1)c1ccccc1` [PPT, 1-[2-(t-butyl-diphenyl-silyloxy)-ethyl]-1H, 8H-pyrimido [4,5-d]pyrimidine-2,4,5,7-tetraone]: the solubility is above 1 mM in data set [1] (setting [2]); above 1 mM in data set [1] (setting [3]); above 1 mM in data set [1] (setting [4]); above 1 mM in data set [1] (setting [5]); above 1 mM in data set [1] (setting [6]); below 100 mM in data set [1] (setting [7]). For the same compound, the solubility in data set [1] (setting [8]) is above 1 mM; in data set [1] (setting [9]) it was below 100 mM; in data set [1] (setting [10]), above 1 mM; in data set [1] (setting [11]) it was below 100 mM; in data set [1] (setting [12]), above 1 mM; in data set [1] (setting [13]), below 100 mM. Also, the “base pair formation: deviation of absorbance plot from the linear line by Beer's law” value (“base pair formation: deviation” below) in the data set with 1-methylcytosine (C), in the data set on 9-methyladenine (A), with 9-methylguanine (G) and in the data set on 1-methylthymine (T) was “large deviation from the linear line” throughout.

On to `Cn1cnc2c(N)ncnc21` [A, 9-methyladenine], for which the “base pair formation: deviation” value in the data set on 1-methylthymine (T) is listed as “deviation from the linear line”.

On to `O=c1[nH]c(=O)c2c(=O)[nH]c(=O)n(CCO)c2[nH]1` [CH2CH2OH], for which the solubility result in data set [1] (DMF, concentration 1 mM) is reported as “S (S: soluble)”; in data set [1] (DMF, concentration 100 mM), “Ins (Ins: insoluble)”; in data set [1] (DMSO, concentration 1 mM), “S (S: soluble)”; in data set [1] (DMSO, concentration 100 mM), “Ins (Ins: insoluble)”; in data set [1] (setting [14]), “S (S: soluble)”; in data set [1] (setting [15]) it was “Ins (Ins: insoluble)”. Moreover, the solubility result is reported as “S (S: soluble)” in data set [1] (methanol, concentration 1 mM); “Ins (Ins: insoluble)” in data set [1] (methanol, concentration 100 mM); “S (S: soluble)” in data set [1] (setting [16]); “Ins (Ins: insoluble)” in data set [1] (setting [17]); “S (S: soluble)” in data set [1] (water, concentration 1 mM); “Ins (Ins: insoluble)” in data set [1] (water, concentration 100 mM).

For `O=C(O)Cn1c(=O)[nH]c(=O)c2c(=O)[nH]c(=O)[nH]c21` [CH2COOH], the solubility entry is listed as “S (S: soluble)” in data set [1] (DMF, concentration 1 mM); “Ins (Ins: insoluble)” in data set [1] (DMF, concentration 100 mM); “S (S: soluble)” in data set [1] (DMSO, concentration 1 mM); “Ins (Ins: insoluble)” in data set [1] (DMSO, concentration 100 mM); “S (S: soluble)” in data set [1] (setting [14]); “S (S: soluble)” in data set [1] (setting [15]). The solubility result in data set [1] (methanol, concentration 1 mM) is given as “S (S: soluble)”; in data set [1] (methanol, concentration 100 mM), “Ins (Ins: insoluble)”; in data set [1] (setting [16]) it was “S (S: soluble)”; in data set [1] (setting [17]), “S (S: soluble)”; in data set [1] (water, concentration 1 mM) it was “S (S: soluble)”; in data set [1] (water, concentration 100 mM) it was “S (S: soluble)”.

Take `O=c1[nH]c(=O)c2c(=O)[nH]c(=O)[nH]c2[nH]1` [PPT(H), pyrimido [4,5-d]pyrimidine-2,4,5,7-tetraone, reference compound]: the solubility in data set [1] (setting [2]), in data set [1] (setting [3]), in data set [1] (setting [4]), in data set [1] (setting [5]), in data set [1] (setting [6]) and in data set [1] (setting [7]) was below 100 mM throughout. Moreover, the solubility in data set [1] (setting [8]), in data set [1] (setting [9]), in data set [1] (setting [10]), in data set [1] (setting [11]), in data set [1] (setting [12]) and in data set [1] (setting [13]) was below 100 mM throughout. Also, the “solubility in water and organic solvents” value is “insoluble” in data set [1] and “extremely low” in data set [1] (listed as unsubstituted form of pyrimido [4,5-d] pyrimidine -2,4,5,7-tetraone).

`C=CCn1c(=O)[nH]c(=O)c2c(=O)[nH]c(=O)[nH]c21` [CH2CH═CH2]: the solubility entry in data set [1] (DMF, concentration 1 mM) was “S (S: soluble)”; in data set [1] (DMF, concentration 100 mM) it was “S (S: soluble)”; in data set [1] (DMSO, concentration 1 mM), “S (S: soluble)”; in data set [1] (DMSO, concentration 100 mM), “S (S: soluble)”; in data set [1] (setting [14]), “S (S: soluble)”; in data set [1] (setting [15]), “Ins (Ins: insoluble)”. Also, the solubility entry in data set [1] (methanol, concentration 1 mM) was “S (S: soluble)”; in data set [1] (methanol, concentration 100 mM) it was “Ins (Ins: insoluble)”; in data set [1] (setting [16]), “S (S: soluble)”; in data set [1] (setting [17]) it was “Ins (Ins: insoluble)”; in data set [1] (water, concentration 1 mM), “S (S: soluble)”; in data set [1] (water, concentration 100 mM), “Ins (Ins: insoluble)”.

Consider `Cn1cnc2c(=O)[nH]c(N)nc21` [G, 9-methylguanine], for which the “base pair formation: deviation” value in the data set on 1-methylthymine (T) is “no deviation from the linear line”.

For orientation: solubility means the concentration that dissolves in the medium under given conditions.
